Results published in patent US6436631B1, “Comparative phenotype analysis for assessment of biologically active compounds such as antimicrobials” (priority 2000, dated 2002).
Where a SMILES comes first, the peptide text is derived from it.

Tests used:
Type in all cases: cell-based
[1] = tested on: Saccharomyces cerevisiae (BY4741); assay: EA MicroPlate nutrient stimulation test without methionine (iodo-nitro-tetrazolium violet reduction); conditions: L-methionine well (25 μM); 30° C., 2 days, visual
Description: In this Example, the response of a yeast to various compounds was tested. The yeast used in these experiments was Saccharomyces cerevisiae (BY4741, obtained from Dr. Mark Johnston, Washington University, St. Louis, Mo.). The genotype of this strain was indicated as being Mat a (i.e., mating type “a”), ura-, his-, leu-, and met-. In these experiments, the ability of this strain to grow in a culture medium without methionine was investigated. Methionine interferes with the ability to test this organism for its utilization of other potential sulfur sources (i.e., if methionine is added to a culture medium the organism preferentially uses it as a sulfur source). The yeast was grown for 48 hours at 30° C. on R2A agar medium (Acumedia). Cells were removed from the agar surface with a sterile cotton swab and suspended at a cell density of 65% transmittance (as read using a BiologTM turbidimeter) in an inoculating fluid containing 50 mM glucose, 0.15 mM uracil, 0.15 mM L-histidine, 0.15 mM L-leucine, 0.15 mM MgCl2, 1.0 mM CaCl2, 2.0 mM NaCl, 1.0 mM KCl, 3.0 mM NH4Cl, 1.0 mM NaH2PO4, 0.1 mM Na2SO4, 0.01% iodo-nitro-tetrazolium violet, 0.01% phytagel (gellan gum), 0.03% pluronic F-68; the pH was adjusted to 6.0. The cell suspension (100 μl/well) was then used to inoculate a BiologTM EA MicroPlateTM, which tests the ability of a cell to be stimulated by a set of 95 different nutrients. The nutrients included within the microarray were: […] One well (A-1) contains no nutrients and is used as a reference (i.e., control) well. After inoculation, the microarray was incubated at 30° C. for 2 days and visually observed.

E. coli MG1655 = assay: phenotype microarray (PM) comparative profiling of antimicrobials, S-O-R scoring, distance matrix and dendrogram; conditions: 7 PMs; for clustering in dendrogram of PM S-O-R response (FIG. 4): 1x level of each antimicrobial (lowest concentration giving detectable inhibition of respiration), 665 phenotypes, 48 hours; for PM response pattern (fingerprint) of cells exposed to the antimicrobial: partially inhibitory concentrations (1x, 2x)
Description: In this Example, experiments are described in which the feasibility of using PMs for analyzing the metabolic effects of antimicrobial compounds and their mechanisms of action were investigated. Specifically, the experiments were designed to determine whether compounds that act via interaction with specific bacterial proteins (“target-specific”) can be distinguished from those acting via non-specific mechanisms, solely on the basis of differences in signature metabolic profiles. In addition, the experiments were designed to determine whether different interactors of the same pathway produce a similar signature profile, as well as whether interactors of different pathways produce distinctly different profiles.
Twenty chemicals were selected for inclusion in these experiments. Fifteen of these, listed below in Table 3 as “single target antimicrobials” are thought to have relatively specific modes of action, whereas five antimicrobials, listed as “multiple target antimicrobials” are thought to have non-specific modes of action.
An initial set of experiments was performed to select the concentrations of each chemical as it was desirable to use a partially inhibitory concentration. A completely inhibitory or sub-inhibitory concentration would not provide any information. Partial inhibitory levels were determined using the criterion of decreased formation of purple color due to inhibition of tetrazolium violet reduction (i.e., respiration). Each compound was tested at two concentrations giving partial inhibition of respiration. The lower concentration, referred to as “1x,” was the lowest concentration giving detectable inhibition of respiration. The higher concentration, referred to as “2x,” was twice the 1x concentration. […] Thus, only 1x and 2x concentrations were used.
In these experiments, E. coli MG1655 was tested against 20 antimicrobials at two concentrations using 7 PMs each, for a total of 280 PMs. […] Since in these experiments each PM contains 95 phenotypes, the total number of phenotypes analyzed here was 26,600. Each PM was monitored kinetically every 15 minutes using a specialized instrument described is U.S. patent application Ser. No. 09/277,353 (herein incorporated by reference) for an incubation duration of 48 hours. Thus, the total number of data points for the experiments was 5,107,200.
The results of the data collected for a run is a kinetic phenotype of the cell exposed to an antimicrobial overlaid and compared against the phenotype of the cell without exposure to the antimicrobial. When the two kinetic tracings of tetrazolium reduction (i.e., cell respiration) overlap, there is no difference in the response to that phenotype (indicated as “O”). When the control tracing exceeds the antimicrobial tracing, the organism is scored as “more sensitive” or “S.” When the antimicrobial tracing exceeds the control tracing, the organism is scored as “more resistant,” or “R.” Based on visual examination of the PMs after incubation, the threshold values for judging S and R results were determined. The software then automatically calculated the areas under the differential tracings and applied threshold values to score all 26,600 phenotypes as S, O, or R.
From the S—O—R data, a distance matrix was generated. The S—O—R response (a string of 665 values) for one antimicrobial was compared to the response for another antimicrobial, and the differences summed up. A difference of O to S or of O to R was assigned a value of 1, and a difference of S to R was assigned a value of 2. The string of 665 differences was then summed up.

E. coli (MG1655) = assay: BAC combination (synergy/antagonism) testing in ES1, ES2 and ES3 MicroPlate sensitivity panels, tetrazolium violet
Description: In this Example, the susceptibility of E. coli (MG1655) was tested in the presence of vancomycin (10 μg/ml) or sulfamethoxazole (235 μg/ml) in microarrays containing various additional compounds. The microarrays were present in three Biolog™ sensitivity test panels, referred to as ES1, ES2 and ES3 MicroPlates™. The organisms were added to a sterile aqueous suspension containing 0.40% NaCl, 0.03% pluronic F68, 0.01% phytagel, and 0.01% tetrazolium violet, to a cell density of 85% transmittance (as measured using a BiologTm turbidimeter). The BAC to be tested was added to the suspension just prior to inoculating the organisms (100 μl/well) into the wells of the microarrays. The wells of these ES MicroPlates™ contained a basal broth medium consisting of tryptone (2 g/L), yeast extract (1 g/L), and NaCl (1 g/L). […]

For `CSCC[C@H](N)C(=O)O` [L-methionine], the “stimulation of growth/respiration (pink color) in medium without methionine” value [1] was “increased pink color”.

With `CC1(C)S[C@@H]2[C@H](NC(=O)[C@H](N)c3ccccc3)C(=O)N2[C@H]1C(=O)O` [ampicillin] the “clustering in dendrogram of PM S-O-R response (FIG. 4)” value (shortened to “clustering in dendrogram”) (E. coli MG1655) was “cluster”.

With `O=[N+]([O-])c1ncc[nH]1` [azomycin] the “change of sensitivity of E. coli strain to panel compound” value (“change of sensitivity of E. coli strain” below) (E. coli (MG1655); in the presence of 235 μg/ml sulfamethoxazole, azomycin at 0.2, 0.4, 0.8 and 1.6 μg/ml) was “increased sensitivity”.

For `CC[C@H](C)[C@H](N)C1=N[C@H](C(=O)N[C@@H](CC(C)C)C(=O)N[C@H](CCC(=O)O)C(=O)N[C@H](C(=O)N[C@H]2CCCCNC(=O)[C@H](CC(N)=O)NC(=O)[C@@H](CC(=O)O)NC(=O)[C@H](Cc3cnc[nH]3)NC(=O)[C@@H](Cc3ccccc3)NC(=O)[C@H]([C@@H](C)CC)NC(=O)[C@@H](CCCN)NC2=O)[C@@H](C)CC)CS1` [bacitracin] (HELM PEPTIDE1{[CC[C@H](C)[C@H](N)C1=N[C@H](C(=O)[*:2])CS1].L.[dE].I.K.[NCCC[C@@H](N[*:1])C(=O)[*:2]].I.[dF].H.[dD].N}$PEPTIDE1,PEPTIDE1,5:R3-11:R2$$$V2.0), the “clustering in dendrogram” value (E. coli MG1655) was “cluster”.

For `N[C@@H](C(=O)N[C@@H]1C(=O)N2C(C(=O)O)=C(Cl)CS[C@H]12)c1ccccc1` [cefaclor], the “change of sensitivity of E. coli strain” value (E. coli (MG1655); in the presence of 235 μg/ml sulfamethoxazole, cefaclor at 1.33, 2.66 and 5.33 μg/ml) was “increased sensitivity”.

In the case of `Cc1nnc(SCC2=C(C(=O)O)N3C(=O)[C@@H](NC(=O)Cn4cnnn4)[C@H]3SC2)s1` [cefazolin], the “change of sensitivity of E. coli strain” value (E. coli (MG1655); in the presence of 10 μg/ml vancomycin, cefazolin at 2.0 and 4.0 μg/ml) is reported as “increased sensitivity” and the “change of sensitivity of E. coli strain” value (E. coli (MG1655); in the presence of 235 μg/ml sulfamethoxazole, cefazolin at 0.5, 1.0, 2.0 and 4.0 μg/ml) is reported as “increased sensitivity”.

With `CO[C@@]1(NC(=O)Cc2cccs2)C(=O)N2C(C(=O)O)=C(COC(N)=O)CS[C@@H]21` [cefoxitin] the “change of sensitivity of E. coli strain” value (E. coli (MG1655); in the presence of 10 μg/ml vancomycin, cefoxitin at 0.75 and 1.5 μg/ml) was “increased sensitivity”.

For `NC(=O)c1cc[n+](CC2=C(C(=O)O)N3C(=O)[C@@H](NC(=O)[C@@H](c4ccccc4)S(=O)(=O)[O-])[C@H]3SC2)cc1` [cefsulodin], the “change of sensitivity of E. coli strain” value (E. coli (MG1655); in the presence of 235 μg/ml sulfamethoxazole, cefsulodin at 8 and 16 μg/ml) was “increased sensitivity”.

For `O=C(Cc1cccs1)N[C@@H]1C(=O)N2C(C(=O)[O-])=C(C[n+]3ccccc3)CS[C@H]12` [cephaloridine], the “change of sensitivity of E. coli strain” value (E. coli (MG1655); in the presence of 235 μg/ml sulfamethoxazole, cephaloridine at 0.75, 1.5, 3.0 and 6.0 μg/ml) was “increased sensitivity”.

`CC(=O)OCC1=C(C(=O)O)N2C(=O)[C@@H](NC(=O)Cc3cccs3)[C@H]2SC1` [cephalothin] was tested, and the “change of sensitivity of E. coli strain” value (E. coli (MG1655); in the presence of 10 μg/ml vancomycin, cephalothin at 10 and 20 μg/ml) was “increased sensitivity”, the “change of sensitivity of E. coli strain” value (E. coli (MG1655); in the presence of 235 μg/ml sulfamethoxazole, cephalothin at 5.0, 10 and 20 μg/ml) was “increased sensitivity” and the “clustering in dendrogram” value (E. coli MG1655) was “cluster”.

In the case of `C/C=C/C/C=C/CCC(=O)[C@H]1O[C@H]1C(N)=O` [cerulenin], the “PM response pattern (fingerprint) of cells exposed to the antimicrobial” value (from here on “PM response pattern (fingerprint)”) (E. coli MG1655) is reported as “more closely resembled the multiple target antimicrobials”.

With `O=C(N[C@H](CO)[C@H](O)c1ccc([N+](=O)[O-])cc1)C(Cl)Cl` [chloramphenicol] the “clustering in dendrogram” value (E. coli MG1655) was “cluster”.

With `[Cl][Cr]([Cl])[Cl]` [chromium chloride] the “change of sensitivity of E. coli strain” value (E. coli (MG1655); in the presence of 235 μg/ml sulfamethoxazole, chromium chloride at 200 and 400 μg/ml) was “increased sensitivity”.

In the case of `[Cl][Co][Cl]` [cobalt chloride], the “change of sensitivity of E. coli strain” value (E. coli (MG1655); in the presence of 235 μg/ml sulfamethoxazole, cobalt chloride 12 and 25 μg/ml) is reported as “increased sensitivity”.

`CC(=O)O[C@H]1C[C@@]2(C)[C@@H](C[C@@H](O)[C@H]3[C@@]4(C)CC[C@@H](O)[C@@H](C)[C@@H]4CC[C@@]32C)/C1=C(\CCC=C(C)C)C(=O)O` [fusidic acid] was tested, and the “change of sensitivity of E. coli strain” value (E. coli (MG1655); in the presence of 10 μg/ml vancomycin, fusidic acid at 200 and 400 μg/ml) was “increased sensitivity”.

With `CCn1cc(C(=O)O)c(=O)c2ccc(C)nc21` [nalidixic acid] the “change of sensitivity of E. coli strain” value (E. coli (MG1655); in the presence of 10 μg/ml vancomycin, nalidixic acid at 1.0, 2.0 and 4.0 μg/ml) was “increased sensitivity” and the “clustering in dendrogram” value (E. coli MG1655) was “did not cluster with the other two DNA gyrase inhibiting chemicals”.

`[Cl][Ni][Cl]` [nickel chloride] was tested, and the “change of sensitivity of E. coli strain” value (E. coli (MG1655); in the presence of 235 μg/ml sulfamethoxazole, nickel chloride at 20 and 40 μg/ml) was “increased sensitivity”.

`CO[C@@H]1[C@@H](OC(N)=O)[C@@H](O)[C@H](Oc2ccc3c(O)c(NC(=O)c4ccc(O)c(CC=C(C)C)c4)c(=O)oc3c2C)OC1(C)C` [novobiocin] was tested, and the “change of sensitivity of E. coli strain” value (E. coli (MG1655); in the presence of 10 μg/ml vancomycin, novobiocin at 33 and 66 μg/ml) was “increased sensitivity” and the “change of sensitivity of E. coli strain” value (E. coli (MG1655); in the presence of 235 μg/ml sulfamethoxazole, novobiocin at 66 and 133 μg/ml) was “increased resistance”.

For `CCn1cc(C(=O)O)c(=O)c2cc3c(cc21)OCO3` [oxolinic acid], the “clustering in dendrogram” value (E. coli MG1655) was “clustered”.

`C[C@@H]1O[C@@H]1P(=O)(O)O` [phosphomycin] was tested, and the “clustering in dendrogram” value (E. coli MG1655) was “cluster”.

For `[H]/N=C(/N)N[C@H]1[C@H](O)[C@@H](O)[C@H](O[C@@H]2O[C@@H](C)[C@](O)(C=O)[C@H]2O[C@@H]2O[C@@H](CO)[C@H](O)[C@@H](O)[C@@H]2NC)[C@@H](N/C(N)=N\[H])[C@@H]1O` [streptomycin], the “clustering in dendrogram” value (E. coli MG1655) was “cluster”.

`Nc1ccc(S(=O)(=O)Nc2nccs2)cc1` [sulfathiazole] was tested, and the “PM response pattern (fingerprint)” value (E. coli MG1655) was “more closely resembled the multiple target antimicrobials”.

For `COc1cc(Cc2cnc(N)nc2N)cc(OC)c1OC` [trimethoprim], the “change of sensitivity of E. coli strain” value (E. coli (MG1655); in the presence of 10 μg/ml vancomycin, trimethoprim at 0.17, 0.33, 0.67 and 1.3 ng/ml) was “increased sensitivity” and the “change of sensitivity of E. coli strain” value (E. coli (MG1655); in the presence of 235 μg/ml sulfamethoxazole, trimethoprim at 0.17, 0.33, 0.67 and 1.3 ng/ml) was “increased sensitivity”.

With coumermycin the “clustering in dendrogram” value (E. coli MG1655) was “clustered”.

With polymyxin B the “PM response pattern (fingerprint)” value (E. coli MG1655) was “more closely resembled the multiple target antimicrobials”.
